Test system: patients with advanced and/or metastatic solid tumours
Experiment: Clinical trial of Volasertib in combination with Cisplatin (arm A) or Carboplatin (arm B)
Format: in vivo
Conditions: for maximum tolerated dose for volasertib: single 2-hour infusion on day 1 every 3 weeks
From the text: Sequential cohorts of three to six patients (pts) received a single 2-hour infusion of Volasertib (V) in combination with Cisplatin (Cis) (arm A) or Carboplatin (Ca) (arm B), on day 1 every 3 weeks. Cis and Ca were given for up to six cycles (Cy), V was continued until disease progression or unacceptable toxicity.

SMILES: CC[C@@H]1C(=O)N(C)c2cnc(Nc3ccc(C(=O)N[C@H]4CC[C@H](N5CCN(CC6CC6)CC5)CC4)cc3OC)nc2N1C(C)C [Volasertib, N-[trans-4-[4-(cyclopropylmethyl)-1-piperazinyl]cyclohexyl]-4-[[(7R)-7-ethyl-5,6,7,8-tetrahydro-5-methyl-8-(1-methylethyl)-6-oxo-2-pteridinyl]amino]-3-methoxy-benzamide]
- partial responses (PR) observed (arm A (with Cisplatin), CHOP-resistant follicular dendritic reticulum cell sarcoma, dose levels A2, A4): two
- partial responses (PR) observed (arm A (with Cisplatin), pretreated lung cancer, dose level A5, PR yet to be confirmed): one
- partial responses (PR) observed (arm B (with Carboplatin), heavily-pretreated head and neck carcinoma, dose level B4): one
- partial responses (PR) observed (both arms together (combination with Cisplatin or Carboplatin), 46 patients): Four
- side effects (myelosuppression) on combination (human, in vivo): without potentiation of those side effects
- maximum tolerated dose for volasertib (in combination with carboplatin): ≥ 300 mg
- maximum tolerated dose for volasertib (in combination with cisplatin): ≥ 300 mg

From US9370535B2, “Method for treatment of advanced solid tumors” (BOEHRINGER INGELHEIM INTERNATIONAL GMBH, priority 2011, dated 2016)
